Reference: PubChem BioAssay AID248 (DTP/NCI, 2004)
Inconclusive results and toxic doses are left out. No stated cut-off is given here; in the data, active means T/C of 150% or more; inactive means T/C below 125%.

Test system: L1210 leukemia ip in BDF1 mice, survival T/C
Assay: NCI In Vivo Anticancer Drug Screen. Data for tumor model L1210 Leukemia (intraperitoneal) in B6D2F1 (BDF1) mice
Conditions: endpoint: mean survival time, higher = longer survival
How it was run: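 Transplanted-tumor mice were given test agent; controls received vehicle only. Survival readings from the two groups were divided (treated over control).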

[1] = dose: 100.0 mg/kg/injection, schedule: Q04DX003 (ip), vehicle: saline
[2] = dose: 200.0 mg/kg/injection, schedule: Q04DX003 (ip), vehicle: saline
[3] = dose: 400.0 mg/kg/injection, schedule: Q04DX003 (ip), vehicle: saline
[4] = dose: 50.0 mg/kg/injection, schedule: Q01DX001 (ip), vehicle: carboxymethylcellulose (CMC)
[5] = dose: 100.0 mg/kg/injection, schedule: Q01DX001 (ip), vehicle: carboxymethylcellulose (CMC)
[6] = dose: 200.0 mg/kg/injection, schedule: Q01DX001 (ip), vehicle: carboxymethylcellulose (CMC)
[7] = dose: 100.0 mg/kg/injection, schedule: Q01DX009 (ip), vehicle: Klucel (hydroxypropylcellulose) (HPC)
[8] = dose: 400.0 mg/kg/injection, schedule: Q01DX009 (ip), vehicle: Klucel (hydroxypropylcellulose) (HPC)
[9] = dose: 100.0 mg/kg/injection, schedule: Q01DX009 (ip), vehicle: saline
[10] = dose: 100.0 mg/kg/injection, schedule: Q04DX003 (ip), vehicle: saline with Tween-80
[11] = dose: 200.0 mg/kg/injection, schedule: Q04DX003 (ip), vehicle: saline with Tween-80
[12] = dose: 200.0 mg/kg/injection, schedule: Q01DX009 (ip), vehicle: Klucel (hydroxypropylcellulose) (HPC)
[13] = dose: 50.0 mg/kg/injection, schedule: Q01DX001 (ip), vehicle: saline
[14] = dose: 100.0 mg/kg/injection, schedule: Q01DX001 (ip), vehicle: saline
[15] = dose: 200.0 mg/kg/injection, schedule: Q01DX001 (ip), vehicle: saline
[16] = dose: 400.0 mg/kg/injection, schedule: Q01DX001 (ip), vehicle: saline
[17] = dose: 100.0 mg/kg/injection, schedule: Q01DX009 (ip), vehicle: saline with Tween-80
[18] = dose: 200.0 mg/kg/injection, schedule: Q01DX009 (ip), vehicle: saline with Tween-80
[19] = dose: 400.0 mg/kg/injection, schedule: Q01DX009 (ip), vehicle: saline with Tween-80

Measured: T/C

CCCC/C=C\C=C\CCCC
inactive: [1] 95 % of control | [2] 103 % of control | [3] 97 % of control

N/C(=N\N=C\c1ccc(-c2ccccc2)cc1)N[N+](=O)[O-]
inactive: [4] 104 % of control | [5] 100 % of control | [6] 93 % of control

COc1cc(/C=c2\[nH]c(=O)/c(=C/c3cc(OC)c(OC)c(OC)c3)[nH]c2=O)cc(OC)c1OC
inactive: [7] 86 % of control | dose: 100.0 mg/kg/injection, schedule: Q04DX003 (ip), vehicle: Klucel (hydroxypropylcellulose) (HPC) 93 % of control | dose: 200.0 mg/kg/injection, schedule: Q04DX003 (ip), vehicle: Klucel (hydroxypropylcellulose) (HPC) 93 % of control | [8] 87 % of control | dose: 400.0 mg/kg/injection, schedule: Q04DX003 (ip), vehicle: Klucel (hydroxypropylcellulose) (HPC) 88 % of control

O=c1[nH]c2ccccc2c(=O)n1C1CCCCC1
inactive: dose: 25.0 mg/kg/injection, schedule: Q01DX009 (ip), vehicle: water 96 % of control | dose: 50.0 mg/kg/injection, schedule: Q01DX009 (ip), vehicle: water 94 % of control | dose: 100.0 mg/kg/injection, schedule: Q01DX009 (ip), vehicle: water 103 % of control | dose: 200.0 mg/kg/injection, schedule: Q01DX009 (ip), vehicle: water 98 % of control | dose: 400.0 mg/kg/injection, schedule: Q01DX009 (ip), vehicle: water 101 % of control

CCNc1cc(Cl)c(C(=O)O)cc1[N+](=O)[O-]
inactive: [9] 116 % of control | dose: 200.0 mg/kg/injection, schedule: Q01DX009 (ip), vehicle: saline 103 % of control | dose: 400.0 mg/kg/injection, schedule: Q01DX009 (ip), vehicle: saline 95 % of control

Cc1cc(S(=O)(=O)F)cc(Cl)c1S
inactive: dose: 25.0 mg/kg/injection, schedule: Q04DX002 (ip), vehicle: saline with Tween-80 99 % of control | dose: 50.0 mg/kg/injection, schedule: Q04DX002 (ip), vehicle: saline with Tween-80 92 % of control

O=C(c1ccccc1)C1(c2ccccc2)OP(c2ccccc2)(c2ccccc2)(c2ccccc2)CC1c1ccccc1 (configuration not stated)
inactive: dose: 12.5 mg/kg/injection, schedule: Q04DX003 (ip), vehicle: saline with Tween-80 90 % of control | dose: 25.0 mg/kg/injection, schedule: Q04DX003 (ip), vehicle: saline with Tween-80 92 % of control

O=C(Nc1ccccc1)Nc1ccc([N+](=O)[O-])cc1[N+](=O)[O-]
inactive: dose: 100.0 mg/kg/injection, schedule: Q01DX001 (ip), vehicle: saline with Tween-80 93 % of control | [10] 92 % of control | dose: 200.0 mg/kg/injection, schedule: Q01DX001 (ip), vehicle: saline with Tween-80 92 % of control | [11] 93 % of control | dose: 400.0 mg/kg/injection, schedule: Q01DX001 (ip), vehicle: saline with Tween-80 98 % of control

Cc1ccc(NC(=O)C(Br)C(Br)c2ccccc2)cc1Cl (configuration not stated)
inactive: [7] 96 % of control | [12] 92 % of control | [8] 88 % of control

CCN(c1ccccc1)c1ccc([N+](=O)[O-])c2no[n+]([O-])c12
inactive: dose: 20.0 mg/kg/injection, schedule: Q04DX003 (ip), vehicle: saline with Tween-80 100 % of control | dose: 40.0 mg/kg/injection, schedule: Q04DX003 (ip), vehicle: saline with Tween-80 96 % of control

CC12CCC(C1)C(C)(C)C2N1C(c2ccccc2)C1c1ccccc1 (configuration not stated)
inactive: [7] 87 % of control | [12] 87 % of control | [8] 100 % of control

O=C(CCCC(=O)N/N=C/c1ccccc1[N+](=O)[O-])N/N=C\c1ccccc1[N+](=O)[O-]
inactive: [13] 112 % of control | [14] 106 % of control | [15] 101 % of control | [16] 101 % of control

O=C(Nc1ccc(Cl)cc1C(F)(F)F)OCCOc1ccc(-c2ccccc2)cc1
inactive: [17] 98 % of control | [18] 96 % of control | [19] 96 % of control

CCCCCCCCCCCCCCCC(=O)N(c1ccc(N)cc1)C(C)CCCN(CC)CC (configuration not stated)
inactive: [17] 100 % of control | [10] 98 % of control | [18] 100 % of control | [11] 97 % of control | [19] 100 % of control | dose: 400.0 mg/kg/injection, schedule: Q04DX003 (ip), vehicle: saline with Tween-80 90 % of control

C=COC(=O)N1CCCC1C(=O)O (configuration not stated)
inactive: [14] 92 % of control | [15] 94 % of control | [16] 90 % of control

CN(Cc1ccccc1)c1ccccc1
inactive: [13] 97 % of control | [14] 97 % of control | [15] 97 % of control | [16] 97 % of control

O=C(O)C1CCCC[N-]1.O=C(O)C1CCCC[N-]1.O=C(O)C1CCCC[N-]1.O=C(O)C1CCCC[N-]1.[Cl][Rh][Cl] (configuration not stated)
inactive: dose: 12.5 mg/kg/injection, schedule: Q01DX008 (ip), vehicle: water 98 % of control | dose: 25.0 mg/kg/injection, schedule: Q01DX008 (ip), vehicle: water 98 % of control | dose: 50.0 mg/kg/injection, schedule: Q01DX008 (ip), vehicle: water 103 % of control | dose: 100.0 mg/kg/injection, schedule: Q01DX008 (ip), vehicle: water 97 % of control | [9] 93 % of control | [1] 102 % of control | [2] 100 % of control | [3] 96 % of control

CC[N+]12CC[N+](CC)(CC1)C2
inactive: [14] 103 % of control | [15] 101 % of control | [16] 91 % of control

CC(CNc1ccc(Cl)cc1)(CNc1ccc(Cl)cc1)[N+](=O)[O-]
inactive: [1] 92 % of control | [2] 88 % of control | [3] 92 % of control

NC(C(=O)O)C(N)(CC(=O)O)C(=O)O (configuration not stated)
inactive: dose: 100.0 mg/kg/injection, schedule: Q04DX002 (ip), vehicle: saline with Tween-80 94 % of control | dose: 200.0 mg/kg/injection, schedule: Q04DX002 (ip), vehicle: saline with Tween-80 94 % of control | dose: 400.0 mg/kg/injection, schedule: Q04DX002 (ip), vehicle: saline with Tween-80 105 % of control

O=Cc1cccc(/C=N/Nc2nnc(N/N=C/c3cccc(C=O)c3)c3ccccc23)c1
inactive: [13] 98 % of control | [14] 98 % of control | [15] 90 % of control | [16] 93 % of control

Cc1cc(=O)[nH]c(O)c1C#N
inactive: [17] 98 % of control | [18] 108 % of control | [19] 98 % of control

Cc1ccc(S)cc1.[Pb]
inactive: [4] 98 % of control | [5] 93 % of control | [6] 103 % of control | dose: 400.0 mg/kg/injection, schedule: Q01DX001 (ip), vehicle: carboxymethylcellulose (CMC) 93 % of control

CCOC(=O)NC1=NCC(C)(C)S1
inactive: dose: 75.0 mg/kg/injection, schedule: Q01DX001 (ip), vehicle: saline 97 % of control

O=c1[nH]cnc2c1[nH]c(=S)n2C1OC(CO)C(O)C1O (configuration not stated)
inactive: [14] 108 % of control | [15] 96 % of control | [16] 100 % of control

ON(C(=Nc1ccccc1)c1ccccc1)c1ccccc1
inactive: [13] 102 % of control | [14] 101 % of control

O=C(Nc1cccc2ccccc12)OC/C=C/c1ccccc1
inactive: dose: 100.0 mg/kg/injection, schedule: Q04DX002 (ip), vehicle: Klucel (hydroxypropylcellulose) (HPC) 119 % of control | dose: 200.0 mg/kg/injection, schedule: Q04DX002 (ip), vehicle: Klucel (hydroxypropylcellulose) (HPC) 93 % of control | dose: 400.0 mg/kg/injection, schedule: Q04DX002 (ip), vehicle: Klucel (hydroxypropylcellulose) (HPC) 104 % of control

NC(N)=N/N=C(/c1ccccc1)c1ccccc1F
inactive: dose: 15.0 mg/kg/injection, schedule: Q01DX Z (ip), vehicle: saline 111 % of control | dose: 30.0 mg/kg/injection, schedule: Q01DX Z (ip), vehicle: saline 100 % of control | dose: 60.0 mg/kg/injection, schedule: Q01DX Z (ip), vehicle: saline 108 % of control | dose: 120.0 mg/kg/injection, schedule: Q01DX Z (ip), vehicle: saline 103 % of control | dose: 120.0 mg/kg/injection, schedule: Q01DX Z (oral), vehicle: saline 105 % of control | dose: 240.0 mg/kg/injection, schedule: Q01DX Z (ip), vehicle: saline 95 % of control | dose: 240.0 mg/kg/injection, schedule: Q01DX Z (oral), vehicle: saline 105 % of control | dose: 480.0 mg/kg/injection, schedule: Q01DX Z (ip), vehicle: saline 96 % of control | dose: 480.0 mg/kg/injection, schedule: Q01DX Z (oral), vehicle: saline 105 % of control
